The values that follow come from patent US9980972B2, “Rho kinase inhibitors for use in treating familial amyotrophic lateral sclerosis” (GEORG-AUGUST-UNIVERSITÄT GÖTTINGEN STIFTUNG ÖFFENTLICHEN …, priority 2012, dated 2018).

For data set [1], the system named is spinal cord microglia of SOD1 G93A mice. The experiment in a line: Microglia morphology subclassification in lumbar spinal cord. In kind it is in vivo, mouse. An excerpt:
For the evaluation of microglia morphology at least 10 randomly chosen cells per ventral horn were examined with a 63× objective. Cells were classified as “thin ramified”, “stouter ramified” and “rounded” according to a recent morphologic description by Graeber et al. (Graeber, M. B. (2010) Science 330(6005): 783-788). A ramified cell was defined as a cell that has at least 2 processes that are at least twice the size of cell body. Thin ramified cells were defined to have a small diameter of ramifications (<0.5 μm) and a small cell soma diameter (<5 μm). Stoutly ramified cells were defined with thicker ramifications (>0.5 μm) and a larger cell soma diameter (>5 μm).
In order to further characterize the differential microglial behaviour in the treatment groups at d100, we performed a morphologic subclassification of microglial cells, as described above under the heading “Quantitative evaluation of spinal cord motoneurons and astroglia, sciatic nerve axons and NMJ”. […] The latter two morphologic cell types are considered to reflect a state of enhanced microglial activation in comparison to a surveillance type which is characterized by smaller cell bodies and thin ramified processes (exemplary microscopic images are shown in FIG. 21 C).

The test system of a further data set is primary microglia. The data set can be described thus: Microglial viability, WST-1 metabolic activity. In kind it is cell-based, mouse. To be noted: up to 50 μM Fasudil. On the procedure: Microglial viability was assayed as metabolic activity using WST-1 reagent (4-[3-(4-iodophenyl)-2-(4-nitrophenyl)-2H-5-tetrazolio]-1,3-benzene disulfonate), based on the enzymatic cleavage of WST tetrazolium salt to formazan by the succinate-tetrazolium reductase system of the respiratory chain of intact mitochondria. The assay was performed according to the instructions of the manufacturer (Roche Applied Science, Mannheim, Germany). After 3 h of incubation, the resulting color reaction was measured at 450 nm (with 655 nm as the reference wavelength) in a microplate reader (Bio-Rad, Munich, Germany).
In general terms: Tetrazolium assays rely on reduction of a dye to a coloured formazan, in cell work by metabolically active cells.

The test system of data set [2] is neuromuscular junctions of SOD1 G93A mice. The data set can be described thus: NMJ integrity of gastrocnemius muscle. Particulars: Fasudil vs control treated animals. It is filed as in vivo, mouse.
The subject of data set [3] is spinal cord microglia of SOD1 G93A mice. The experiment in a line: Iba1 immunopositive microglia count in spinal cord anterior horn. It is filed as in vivo, mouse. On the procedure:
Spinal cord sections selected for immunohistochemical processing were first rehydrated. Then antigen-retrieval was performed for 4 h in TBS at 60° C. for later GFAP or Iba1 labeling and for 30 min in sodium citrate (pH 9.0) at 80° C. for later ChAT labeling. After washing for one time in PBS the sections were incubated at room temperature either in PBS and 10% of normal goat serum for later GFAP labeling or in PBS and 5% normal donkey serum for later ChAT labeling to block unspecific binding. The primary antibodies (anti-ChAT 1:100, AB144 P, Millipore; anti-GFAP 1:200, DAKO; anti-Iba1 1:500, WAKO, Osaka, Japan) were applied at 4° C. for one night for GFAP and for three nights for ChAT. The secondary antibodies (Cy3 anti-goat or Cy2/Dylight anti rabbit; both Dianova) were applied on separate sections 1:300 for 1 h at room temperature. Then a nuclear counter-stain with DAPI (4,6-diamidino-2-phenylindole) (Sigma-Aldrich) was performed before mounting in Moviol (Hoechst, Frankfurt, Germany).
Astrogliosis and microgliosis were evaluated by the quantification of GFAP or Iba1 positive cells in the ventral horn of lumbar spinal cord sections, respectively. Again, the area of the ventral horn was defined and GFAP or Iba1 positive cells were manually counted. In the d50 treatment group analyzed at death, a total of 20 mice was counted from the vehicle (3 male, 3 female), Fas30 (3 male, 3 female), Fas100 (3 male, 3 female) and wildtype (1 male, 1 female) group. In the d50 treatment group analyzed at d100, a total of 20 mice was counted from the vehicle (3 male, 3 female), Fas30 (3 male, 3 female), Fas100 (3 male, 3 female) and wildtype (1 male, 1 female) group.
The extent of microglial cell dissemination in the lumbar spinal cord was evaluated with a marker of activated microglia (Iba1) as described above under the heading “Quantitative evaluation of spinal cord motoneurons and astroglia, sciatic nerve axons and NMJ”.

The subject of data set [4] is mono-cultures of primary motoneurons. The experiment in a line: Kainic acid toxicity in motoneuron mono-culture. It is filed as cell-based.

On to `O=S(=O)(c1cccc2cnccc12)N1CCCNCC1` [Fasudil, 1-(5-isoquinolinesulfonyl)homopiperazine], for which, in data set [1] (d100, Fasudil 30, vehicle SOD1G93A 0.7±0.2%), the rounded microglia is 0.5±0.1%. Also, the “microglia with stout ramified processes” value in data set [1] (d100, Fasudil 30, vehicle SOD1G93A 46.7±6.3%) is given as 70.8±5.3%. Moreover, the “microglia with thin ramifications” value in data set [1] (d100, Fasudil 30, vehicle SOD1G93A 52.6±6.3%) was determined as 28.7±5.3%. Also, the microglial morphology entry in data set [1] (disease end-stage, all treatment groups) was “no gross alterations”. Further, the “microglial metabolic activity (WST-1)” value in the data set with primary microglia was “no reduction in metabolic activity”. In addition, the “sciatic nerve axonal pathology and NMJ integrity of gastrocnemius muscle” value in data set [2] is given as “no significant differences”. Moreover, the “Iba1 immunopositive microglial cells” value came to 39.5±3.9 cells/0.5 mm^2 in data set [3] (d100, Fasudil 30, vehicle SOD1G93A 27.8±4.7, wildtype 14.0±2.8); 48.8±3.3 cells/0.5 mm^2 in data set [3] (disease end-stage, Fas30, vehicle 43.2±4.2); 50.2±4.7 cells/0.5 mm^2 in data set [3] (disease end-stage, Fas100, vehicle 43.2±4.2). The “survival of KA exposed motoneurons” value in data set [4] is “effectively protecting”.
